# Reference: ChEMBL document CHEMBL1201862, “PubChem BioAssay data set” (2004)
#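 Protocol summary: plate cells (96-well), add compound at 5 concentrations, incubate 48 h, interpolate endpoints linearly. At the GI50, growth is halved.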 Activity calls are given as the source filed them. No stated cut-off is given here; in the data, active = GI50 up to about 1.1 µM and inactive = higher.
# Tests used:
# Experiment in all cases: DTP human tumour cell line panel, 48 h
# SW-620 = test system: SW-620
# OVCAR-8 = test system: OVCAR-8
# U-251 = test system: U-251
# UO-31 = test system: UO-31
# A549 = test system: A549
# MCF7 = test system: MCF7
# ACHN = test system: ACHN
# TK-10 = test system: TK-10
# M14 = test system: M14
# UACC-62 = test system: UACC-62
# COLO 205 = test system: COLO 205
# T47D = test system: T47D
# UACC-257 = test system: UACC-257
# SK-MEL-5 = test system: SK-MEL-5
# SF-268 = test system: SF-268
# HT-29 = test system: HT-29
# HOP-62 = test system: HOP-62
# NCI/ADR-RES = test system: NCI/ADR-RES
# PC-3 = test system: PC-3
# MDA-MB-435 = test system: MDA-MB-435
# LOX IMVI = test system: LOX IMVI
# Malme-3M = test system: Malme-3M
# HOP-92 = test system: HOP-92
# HL-60 = test system: HL-60
# HCC 2998 = test system: HCC 2998
# HCT-15 = test system: HCT-15
# IGROV-1 = test system: IGROV-1
# KM12 = test system: KM12
# NCI-H460 = test system: NCI-H460
# RPMI-8226 = test system: RPMI-8226
# MDA-N = test system: MDA-N
# K562 = test system: K562
# SF-539 = test system: SF-539
# EKVX = test system: EKVX
# SK-MEL-2 = test system: SK-MEL-2
# SK-MEL-28 = test system: SK-MEL-28
# MDA-MB-231 = test system: MDA-MB-231
# NCI-H522 = test system: NCI-H522
# CAKI-1 = test system: CAKI-1
# OVCAR-5 = test system: OVCAR-5
# SR = test system: SR
# 786-0 = test system: 786-0
# NCI-H23 = test system: NCI-H23
# SNB-19 = test system: SNB-19
# NCI-H226 = test system: NCI-H226
# CCRF-CEM = test system: CCRF-CEM
# SF-295 = test system: SF-295
# SN12C = test system: SN12C
# SK-OV-3 = test system: SK-OV-3
# OVCAR-3 = test system: OVCAR-3
# HCT-116 = test system: HCT-116
# OVCAR-4 = test system: OVCAR-4
# A498 = test system: A498
# Hs-578T = test system: Hs-578T
# BT-549 = test system: BT-549
# MOLT-4 = test system: MOLT-4
# DU-145 = test system: DU-145
# SNB-75 = test system: SNB-75
# RXF 393 = test system: RXF 393
smiles,measurement,setting,value
O=C(O[C@@H](/C=C/c1ccccc1)P1(=O)N(Cc2ccccc2)[C@@H]2CCCC[C@H]2N1Cc1ccccc1)c1ccccc1,GI50,SW-620,3.66 µM (inactive)
same,GI50,OVCAR-8,3.63 µM (inactive)
same,GI50,U-251,3.21 µM (inactive)
same,GI50,UO-31,3.4 µM (inactive)
same,GI50,A549,3.07 µM (inactive)
same,GI50,MCF7,3.59 µM (inactive)
same,GI50,ACHN,3.95 µM (inactive)
same,GI50,TK-10,> 100 µM (inactive)
same,GI50,M14,3.66 µM (inactive)
same,GI50,UACC-62,3.8 µM (inactive)
same,GI50,COLO 205,2 µM (inactive)
same,GI50,T47D,0.0984 µM (active)
same,GI50,UACC-257,8.75 µM (inactive)
same,GI50,SK-MEL-5,1.99 µM (inactive)
same,GI50,SF-268,5.06 µM (inactive)
same,GI50,HT-29,3.44 µM (inactive)
same,GI50,HOP-62,6.79 µM (inactive)
same,GI50,NCI/ADR-RES,3.66 µM (inactive)
same,GI50,PC-3,3.31 µM (inactive)
same,GI50,MDA-MB-435,3.12 µM (inactive)
same,GI50,LOX IMVI,3.15 µM (inactive)
same,GI50,Malme-3M,3.6 µM (inactive)
same,GI50,HOP-92,1.71 µM (inactive)
same,GI50,HL-60,2.94 µM (inactive)
same,GI50,HCC 2998,7.93 µM (inactive)
same,GI50,HCT-15,2.99 µM
same,GI50,IGROV-1,2.79 µM (inactive)
same,GI50,KM12,2.83 µM (inactive)
same,GI50,NCI-H460,3.53 µM (inactive)
same,GI50,RPMI-8226,2 µM (inactive)
same,GI50,MDA-N,3.33 µM (inactive)
same,GI50,K562,3.25 µM (inactive)
same,GI50,SF-539,4.68 µM (inactive)
same,GI50,EKVX,3.98 µM (inactive)
same,GI50,SK-MEL-2,2.38 µM (inactive)
same,GI50,SK-MEL-28,6.92 µM (inactive)
same,GI50,MDA-MB-231,2.96 µM (inactive)
same,GI50,NCI-H522,4.54 µM (inactive)
same,GI50,CAKI-1,1.48 µM (inactive)
same,GI50,OVCAR-5,4.86 µM (inactive)
same,GI50,SR,2.68 µM (inactive)
same,GI50,786-0,3.89 µM (inactive)
same,GI50,NCI-H23,2.64 µM (inactive)
same,GI50,SNB-19,4.54 µM (inactive)
same,GI50,NCI-H226,2.58 µM (inactive)
same,GI50,CCRF-CEM,2.31 µM (inactive)
same,GI50,SF-295,3.55 µM (inactive)
same,GI50,SN12C,3.18 µM (inactive)
same,GI50,SK-OV-3,5.92 µM (inactive)
same,GI50,OVCAR-3,5.07 µM (inactive)
same,GI50,HCT-116,2.61 µM (inactive)
same,GI50,OVCAR-4,1.88 µM (inactive)
same,GI50,A498,5.62 µM (inactive)
same,GI50,Hs-578T,8.89 µM (inactive)
same,GI50,BT-549,4.91 µM (inactive)
COc1cccc(CCCNC(=O)Cc2cc(OC)c(OC)cc2CO)c1,GI50,SW-620,> 100 µM (inactive)
same,GI50,OVCAR-8,> 100 µM (inactive)
same,GI50,U-251,> 100 µM (inactive)
same,GI50,UO-31,> 100 µM (inactive)
same,GI50,A549,> 100 µM (inactive)
same,GI50,MOLT-4,> 100 µM (inactive)
same,GI50,ACHN,> 100 µM (inactive)
same,GI50,TK-10,> 100 µM (inactive)
same,GI50,M14,> 100 µM (inactive)
same,GI50,UACC-62,> 100 µM (inactive)
same,GI50,COLO 205,> 100 µM (inactive)
same,GI50,DU-145,> 100 µM (inactive)
same,GI50,T47D,39.1 µM (inactive)
same,GI50,UACC-257,> 100 µM (inactive)
same,GI50,SK-MEL-5,83.2 µM (inactive)
same,GI50,HT-29,> 100 µM (inactive)
same,GI50,HOP-62,> 100 µM (inactive)
same,GI50,NCI/ADR-RES,> 100 µM (inactive)
same,GI50,PC-3,> 100 µM (inactive)
same,GI50,MDA-MB-435,> 100 µM (inactive)
same,GI50,LOX IMVI,> 100 µM (inactive)
same,GI50,Malme-3M,> 100 µM (inactive)
same,GI50,HOP-92,> 100 µM (inactive)
same,GI50,HL-60,> 100 µM (inactive)
same,GI50,HCC 2998,> 100 µM (inactive)
same,GI50,HCT-15,> 100 µM
same,GI50,IGROV-1,> 100 µM (inactive)
same,GI50,KM12,> 100 µM (inactive)
same,GI50,NCI-H460,> 100 µM (inactive)
same,GI50,MDA-N,> 100 µM (inactive)
same,GI50,K562,> 100 µM (inactive)
same,GI50,EKVX,> 100 µM (inactive)
same,GI50,SK-MEL-2,> 100 µM (inactive)
same,GI50,SK-MEL-28,> 100 µM (inactive)
same,GI50,MDA-MB-231,> 100 µM (inactive)
same,GI50,CAKI-1,> 100 µM (inactive)
same,GI50,OVCAR-5,> 100 µM (inactive)
same,GI50,SR,> 100 µM (inactive)
same,GI50,786-0,> 100 µM (inactive)
same,GI50,NCI-H23,> 100 µM (inactive)
same,GI50,SNB-19,> 100 µM (inactive)
same,GI50,NCI-H226,> 100 µM (inactive)
same,GI50,SNB-75,> 100 µM (inactive)
same,GI50,CCRF-CEM,> 100 µM (inactive)
same,GI50,SN12C,> 100 µM (inactive)
same,GI50,OVCAR-3,> 100 µM (inactive)
same,GI50,HCT-116,> 100 µM (inactive)
same,GI50,OVCAR-4,> 100 µM (inactive)
same,GI50,A498,> 100 µM (inactive)
same,GI50,Hs-578T,> 100 µM (inactive)
same,GI50,BT-549,> 100 µM (inactive)
O=C1c2ccccc2C2(c3ccc(Cl)cc3)N[C@H]3CCCC[C@@H]3N12 (stereo partly specified),GI50,SW-620,> 100 µM (inactive)
same,GI50,OVCAR-8,> 100 µM (inactive)
same,GI50,U-251,> 100 µM (inactive)
same,GI50,UO-31,> 100 µM (inactive)
same,GI50,A549,77.6 µM (inactive)
same,GI50,MOLT-4,36.7 µM (inactive)
same,GI50,ACHN,> 100 µM (inactive)
same,GI50,TK-10,> 100 µM (inactive)
same,GI50,UACC-62,> 100 µM (inactive)
same,GI50,COLO 205,> 100 µM (inactive)
same,GI50,DU-145,> 100 µM (inactive)
same,GI50,T47D,> 100 µM (inactive)
same,GI50,UACC-257,> 100 µM (inactive)
same,GI50,SK-MEL-5,> 100 µM (inactive)
same,GI50,SF-268,48.8 µM (inactive)
same,GI50,HT-29,73.8 µM (inactive)
same,GI50,RXF 393,97.9 µM (inactive)
same,GI50,HOP-62,41.1 µM (inactive)
same,GI50,NCI/ADR-RES,63 µM (inactive)
same,GI50,PC-3,> 100 µM (inactive)
same,GI50,MDA-MB-435,> 100 µM (inactive)
same,GI50,LOX IMVI,> 100 µM (inactive)
same,GI50,HOP-92,> 100 µM (inactive)
same,GI50,HL-60,47.9 µM (inactive)
same,GI50,HCT-15,> 100 µM
same,GI50,IGROV-1,> 100 µM (inactive)
same,GI50,KM12,85.5 µM (inactive)
same,GI50,RPMI-8226,54.1 µM (inactive)
same,GI50,MDA-N,> 100 µM (inactive)
same,GI50,K562,> 100 µM (inactive)
same,GI50,EKVX,78.3 µM (inactive)
same,GI50,SK-MEL-28,> 100 µM (inactive)
same,GI50,MDA-MB-231,> 100 µM (inactive)
same,GI50,CAKI-1,> 100 µM (inactive)
same,GI50,SR,43.6 µM (inactive)
same,GI50,786-0,95.1 µM (inactive)
same,GI50,NCI-H23,> 100 µM (inactive)
same,GI50,SNB-19,35.4 µM (inactive)
same,GI50,NCI-H226,61.1 µM (inactive)
same,GI50,SNB-75,> 100 µM (inactive)
same,GI50,CCRF-CEM,53.2 µM (inactive)
same,GI50,SF-295,> 100 µM (inactive)
same,GI50,SN12C,> 100 µM (inactive)
same,GI50,SK-OV-3,> 100 µM (inactive)
same,GI50,OVCAR-3,> 100 µM (inactive)
same,GI50,HCT-116,60.1 µM (inactive)
same,GI50,OVCAR-4,84.3 µM (inactive)
same,GI50,A498,> 100 µM (inactive)
same,GI50,Hs-578T,59.2 µM (inactive)
same,GI50,BT-549,> 100 µM (inactive)
